As a reminder, the pEC50 is −log10 of the EC50, conventionally taken in molar units.

The values that follow come from patent publication EP2242752B1, “[…] IMIDAZOLES AS HEPATITIS C VIRUS INHIBITORS” (Bristol-Myers Squibb Company, priority 2008, dated 2009).

Structures are written as SMILES. pEC50: −log10 of the molar value.

This assay has as its system HCV 1b genotype. The assay can be described thus: HCV Replicon assay (HCV 16-377-neo replicon cells). Type of assay: cell-based. To be noted: Hepatitis C virus; HCV 1b genotype replicon cells; read-out: EC50 ranges against HCV 1b. How it is done: An HCV Replion assay was utilized in the present disclosure, and was prepared, conducted and validated as described in commonly owned PCT/US2006/022197 and in O'Boyle et. al. Antimicrob Agents Chemother. 2005 Apr;49(4): 1346-53.
HCV 16-377-neo replicon cells were used to test the currently described compound series as well as cells resistant to compound A due to a Y2065H mutation in NS5A (described in application PCT/US2006/022197). The compounds tested were determined to have more than 10-fold less inhibitory activity on cells resistant to compound A than wild-type cells indicating a related mechanism of action between the two compound series. Thus, the compounds of the present disclosure can be effective to inhibit the function of the HCV NS5A protein and are understood to be as effective in combinations as previously described in application PCT/US2006/022197 and commonly owned WO/O4014852. Further, the compounds of the present disclosure can be effective against the HCV 1b genotype. It should also be understood that the compounds of the present disclosure can inhibit multiple genotypes of HCV. […] In one embodiment compounds of the present disclosure are active against the 1a, 1b, 2a, 2b, 3a, 4a, and 5a genotypes.
Take `COC(=O)NCC(=O)N1[C@@H]2C[C@@H]2C[C@H]1c1ncc(-c2ccc(-c3ccc(-c4cnc([C@@H]5C[C@H]6C[C@H]6N5C(=O)CNC(=O)OC)[nH]4)cc3)cc2)[nH]1` (mixture of isomers) [Example M134, methyl (2-((1R,3S,SR)-3-(4-(4'-(2-((1R,3S,SR)-2-(((methoxycarbonyl)amino)acetyl)-2-azabicyclo[3.1.0]hex-3-yl)-1H-imidazol-4-yl)-4-biphenylyl)-1H-imidazol-2-yl)-2-azabicyclo[3.1.0]hex-2-yl)-2-oxoethyl) carbamate]: the pEC50 is 7.00 to 9.00.
The figure for `COC(=O)N[C@@H](C(=O)N1[C@@H]2C[C@H]2C[C@H]1c1nc(-c2ccc(-c3ccc(-c4c[nH]c([C@@H]5C[C@@H]6C[C@H]6N5C(=O)[C@H](NC(=O)OC)c5ccccc5)n4)cc3)cc2)c[nH]1)c1ccccc1` (mixture of isomers) [Example M137, dimethyl (4,4'-biphenyldiylbis(1H-imidazole-4,2-diyl(1R,3S,SR)-2-azabicyclo[3.1.0]hexane-3,2-diyl((1R)-2-oxo-1-phenyl-2,1-ethanediyl)))biscarbamate] is 9.00 to 12.00; for `COC(=O)N[C@H](C(=O)N1[C@@H]2C[C@@H]2C[C@H]1c1nc(-c2ccc(-c3ccc(-c4c[nH]c([C@@H]5CC6C[C@H]6N5C(C)=O)n4)cc3)cc2)c[nH]1)C(C)C` (mixture of isomers) [Example M138, methyl ((1S)-1-(((1R,3S,5R)-3-(4-(4'-(2-((1R,3S,SR)-2-acetyl-2-azabicyclo[3.1.0]hex-3yl)-1Himidazol-4yl)-4-biphenylyl)-1Himidazol-2-yl)-2-azabicyclo[3.1.0]hex-2-yl)carbonyl)-2-methylpropyl)carbamate] it is 9.00 to 12.00.
To `CC(=O)N[C@@H](C(=O)N1[C@@H]2CC2C[C@H]1c1nc(-c2ccc(-c3ccc(-c4c[nH]c([C@@H]5C[C@H]6C[C@H]6N5C(=O)[C@H](NC(C)=O)C(C)C)n4)cc3)cc2)c[nH]1)C(C)C` (mixture of isomers) [Example M143, N-((1R)-1-(((1R,3S,5R)-3-(4-(4'-(2-((1R,3S,SR)-2-((2R)-2-acetamido-3-methylbutanoyl)-2-azabicyclo[3.1.0]hex-3-yl)-1H-imidazol-4-yl)-4-biphenylyl)-1H-imidazol-2-yl)-2-azabicyclo[3.1.0]hex-2-yl)carbonyl)-2-methylpropyl)acetamide] belongs 7.00 to 9.00; to `Cc1[nH]c([C@@H]2CCCN2C(=O)[C@@H](c2ccccc2)N(C)C)nc1-c1ccc(-c2ccc(-c3c[nH]c([C@@H]4CCCN4C(=O)[C@@H](c4ccccc4)N(C)C)n3)cc2)cc1` [Example E5, (1R)-2-((2S)-2-(4-(4'-(2-((2S)-1-((2R)-2-(dimethylamino)-2-phenylacetyl)-2-pyrrolidinyl)-1H-imidazol-4-yl)-4-biphenylyl)-5-methyl-1 H-imidazol-2-yl)-1-pyrrolidinyl)-N,N-dimethyl-2-oxo-1-phenylethanamine], 9.00 to 12.00.
With `CCN(CC)[C@@H](C(=O)N1CCC[C@H]1c1nc(-c2ccc(-c3ccc(-c4nc([C@@H]5CCCN5C(=O)[C@@H](c5ccccc5)N(CC)CC)[nH]c4C)cc3)cc2)c[nH]1)c1ccccc1` [Example E5a, (1R)-2-((2S)-2-(4-(4'-(2-((2S)-1-((2R)-2-(diethylamino)-2-phenylacetyl)-2-pyrrolidinyl)-1H-imidazol-4-yl)-4-biphenylyl)-5-methyl-1H-imidazol-2-yl)-1-pyrrolidinyl)-N,N-diethyl-2-oxo-1-phenylethanamine], the pEC50 was 9.00 to 12.00.
Consider `Cc1nc([C@@H]2CCCN2C(=O)[C@@H](c2ccccc2)N2CCCCC2)[nH]c1-c1ccc(-c2ccc(-c3c[nH]c([C@@H]4CCCN4C(=O)[C@@H](c4ccccc4)N4CCCCC4)n3)cc2)cc1` [Example E5b, 1-((1R)-2-((2S)-2-(4-(4'-(4-methyl-2-((2S)-1-((2R)-2-phenyl-2-(1-piperidinyl)acetyl)-2-pyrrolidinyl)-1H-imidazol-5-yl)-4-biphenylyl)-1H-imidazol-2-yl)-1-pyrrolidinyl)-2-oxo-1-phenylethyl)piperidine], for which the pEC50 was 9.00 to 12.00.
To `COC(=O)N[C@@H](C(=O)N1CCC[C@H]1c1nc(-c2ccc(-c3ccc(-c4nc([C@@H]5CCCN5C(=O)[C@H](NC(=O)OC)c5ccccc5)[nH]c4C)cc3)cc2)c[nH]1)c1ccccc1` [Example E5c, methyl ((1R)-2-((2S)-2-(4-(4'-(2-((2S)-1-((2R)-2-((methoxycarbonyl)amino)-2-phenylacetyl)-2-pyrrolidinyl)-1H-imidazol-4-yl)-4-biphenylyl)-5-methyl-1H-imidazol-2-yl)-1-pyrrolidinyl)-2-oxo-1-phenylethyl)carbam ate] belongs 9.00 to 12.00.
For the molecule `COC(=O)N[C@@H](C)C(=O)N1CCC[C@H]1c1nc(-c2ccc(-c3ccc(-c4[nH]c([C@@H]5CCCN5C(=O)[C@H](C)NC(=O)OC)nc4C)cc3)cc2)c[nH]1` [Example E5d, methyl ((1S)-2-((2S)-2-(4-(4'-(2-((2S)-1-(N-(methoxycarbonyl)-L-alanyl)-2-pyrrolidinyl)-4-methyl-1H-imidazol-5-yl)-4-biphenylyl)-1H-imidazol-2-yl)-1-pyrrolidinyl)-1-methyl-2-oxoethyl)carbamate], the pEC50 was 9.00 to 12.00.
On to `COC(=O)N[C@H](C(=O)N1CCC[C@H]1c1nc(-c2ccc(-c3ccc(-c4nc([C@@H]5CCCN5C(=O)[C@@H](NC(=O)OC)C(C)C)[nH]c4C)cc3)cc2)c[nH]1)C(C)C` [Example E5e, methyl ((1S)-1-(((2S)-2-(4-(4'-(2-((2S)-1-((2S)-2-((methoxycarbonyl)amino)-3-methylbutanoyl)-2-pyrrolidinyl)-1H-imidazol-4-yl)-4-biphenylyl)-5-methyl-1H-imidazol-2-yl)-1-pyrrolidinyl)carbonyl)-2-methylpropyl)carba mate], for which the pEC50 was 9.00 to 12.00.
The figure for `COC(=O)N[C@H](C(=O)N1CCC[C@H]1c1nc(-c2ccc(-c3ccc(-c4[nH]c([C@@H]5CCCN5C(=O)[C@@H](NC(=O)OC)[C@@H](C)OC)nc4C)cc3)cc2)c[nH]1)[C@@H](C)OC` [Example E5f, methyl ((1S,2R)-2-methoxy-1-(((2S)-2-(4-(4'-(2-((2S)-1-(N-(methoxycarbonyl)-O-methyl-L-threonyl)-2-pyrrolidinyl)-4-methyl-1H-imidazol-5-yl)-4-biphenylyl)-1H-imidazol-2-yl)-1-pyrrolidinyl)carbonyl)propyl)carbamate] is 9.00 to 12.00.
To `Cc1nc([C@@H]2CCCN2C(=O)[C@@H](c2ccccc2)N(C)C)[nH]c1-c1ccc(-c2ccc(-c3[nH]c([C@@H]4CCCN4C(=O)[C@@H](c4ccccc4)N(C)C)nc3C)cc2)cc1` [Example E5g, (1R,1'R)-2,2'-(4,4'-biphenyldiylbis((4-methyl-1H-imidazole-5,2-diyl)(2S)-2,1-pyrrolidinediyl))bis (N,N-dimethyl-2-oxo-1-phenylethanamine)] belongs 9.00 to 12.00; to `CCN(CC)[C@@H](C(=O)N1CCC[C@H]1c1nc(C)c(-c2ccc(-c3ccc(-c4[nH]c([C@@H]5CCCN5C(=O)[C@@H](c5ccccc5)N(CC)CC)nc4C)cc3)cc2)[nH]1)c1ccccc1` [Example E5h, (1R,1'R)-2,2'-(4,4'-biphenyldiylbis((4-methyl-1H-imidazole-5,2-diyl)(2S)-2,1-pyrrolidinediyl))bis (N,N-diethyl-2-oxo-1-phenylethanamine)], 9.00 to 12.00.
To `Cc1nc([C@@H]2CCCN2C(=O)[C@@H](c2ccccc2)N2CCCCC2)[nH]c1-c1ccc(-c2ccc(-c3[nH]c([C@@H]4CCCN4C(=O)[C@@H](c4ccccc4)N4CCCCC4)nc3C)cc2)cc1` [Example E5i, 1,1'-(4,4'-biphenyldiylbis((4-methyl-1H-imidazole-5,2-diyl)(2S)-2,1-pyrrolidinediyl((1R )-2-oxo-1-phenyl-2,1-ethanediyl)))dipiper idine] belongs 9.00 to 12.00; to `COC(=O)N[C@@H](C(=O)N1CCC[C@H]1c1nc(C)c(-c2ccc(-c3ccc(-c4[nH]c([C@@H]5CCCN5C(=O)[C@H](NC(=O)OC)c5ccccc5)nc4C)cc3)cc2)[nH]1)c1ccccc1` [Example E5j, dimethyl (4,4'-biphenyldiylbis((4-methyl-1H-imidazole-5,2-diyl)(2S)-2,1-pyrrolidinediyl((1R )-2-oxo-1-phenyl-2,1-ethanediyl)))biscarb amate], 9.00 to 12.00.
For `COC(=O)N[C@@H](C)C(=O)N1CCC[C@H]1c1nc(-c2ccc(-c3ccc(-c4nc([C@@H]5CCCN5C(=O)[C@H](C)NC(=O)OC)[nH]c4C)cc3)cc2)c(C)[nH]1` [Example E5k, methyl ((1S)-2-((2S)-2-(4-(4'-(2-((2S)-1-(N-(methoxycarbonyl)-L-alanyl)-2-pyrrolidinyl)-5-methyl-1H-imidazol-4-yl)-4-biphenylyl)-5-methyl-1H-imidazol-2-yl)-1-pyrrolidinyl)-1-methyl-2-oxoethyl)carbamate], the pEC50 is 9.00 to 12.00.
Take `COC(=O)N[C@H](C(=O)N1CCC[C@H]1c1nc(-c2ccc(-c3ccc(-c4[nH]c([C@@H]5CCCN5C(=O)[C@@H](NC(=O)OC)C(C)C)nc4C)cc3)cc2)c(C)[nH]1)C(C)C` [Example E5l, methyl ((1S)-1-(((2S)-2-(4-(4'-(2-((2S)-1-((2S)-2-((methoxycarbonyl)amino)-3-methylbutanoyl)-2-pyrrolidinyl)-4-methyl-1H-imidazol-5-yl)-4-biphenylyl)-5-methyl-1H-imidazol-2-yl)-1-pyrrolidinyl)carbonyl)-2-methylpropyl)carba mate]: the pEC50 was 9.00 to 12.00.
